These results are taken from patent US9023789B2, “Amylin analogs and pharmaceutical compositions thereof” (Novo Nordisk A/S, priority 2012, dated 2015).

Numbered stars: 1 amine (or outer) side, 2 acyl side, 3 side chain; on linkers, the order of the positions; unused ones are H or OH. Bridge positions count the residues as written; N and C are the ends. Side chains are listed from the residue outwards. Peptide text beside a SMILES is read from it. * marks the point of attachment. C20 diacid = O=C(O)CCCCCCCCCCCCCCCCCCC(=O)*; γGlu = O=C(O)[C@H](CCC(=O)[*:2])N[*:1]

Data set [1] concerns the target T1, human calcitonin (a) receptor in BHK570 cells (Homo sapiens, UniProt P30988).
T1 construct: expressed in transfected cells
T1 sequence (P30988 25-474): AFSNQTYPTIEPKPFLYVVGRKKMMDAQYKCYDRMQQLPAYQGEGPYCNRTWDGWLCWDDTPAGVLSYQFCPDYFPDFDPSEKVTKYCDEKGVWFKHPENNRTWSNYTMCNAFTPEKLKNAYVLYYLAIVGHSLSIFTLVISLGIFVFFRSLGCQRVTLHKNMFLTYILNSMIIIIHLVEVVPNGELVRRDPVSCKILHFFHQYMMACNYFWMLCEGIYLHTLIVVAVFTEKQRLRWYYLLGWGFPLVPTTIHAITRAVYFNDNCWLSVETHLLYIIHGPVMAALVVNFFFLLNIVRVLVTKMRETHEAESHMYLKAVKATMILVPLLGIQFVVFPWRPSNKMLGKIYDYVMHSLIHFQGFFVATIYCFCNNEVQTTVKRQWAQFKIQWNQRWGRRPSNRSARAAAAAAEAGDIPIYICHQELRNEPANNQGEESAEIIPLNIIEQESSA
The experiment in a line: ASSAY (II)a functional assay, human calcitonin receptor (CRE luciferase). The note with it: read-out: hCTR funct. EC50. In kind it is cell-based. An excerpt:
1. Luciferase Assay Outline
Activation of calcitonin and amylin (coexpression of calcitonin receptor and receptor activity modifying proteins (RAMP)) receptors lead to increased intracellular concentrations of cAMP. Consequently, transcription is activated by promoters containing multiple copies of the cAMP response element (CRE). It is thus possible to measure amylin activity by the use of a CRE luciferase reporter gene introduced into BHK cells also expressing calcitonin or amylin receptors.
2. Construction of Calcitonin (a)- and Amylin 3(a)-Receptor/CRE-Luc Cell Line.
The cell line was further transfected with RAMP-3, using standard methods. This turns the calcitonin receptor into an amylin 3(a) receptor. Methotrexate, Neomycin, and Hygromycin are selection markers for luciferase, the calcitonin receptor, and RAMP-3, respectively.
To perform activity assays, BHK calcitonin (a) receptor- or amylin 3(a)-receptor/CRE-luc cells were seeded in white 96 well culture plates at a density of about 20.000 cells/well. […] After incubation overnight at 37° C. and 5% CO2, the growth medium was replaced by 50 μl/well assay medium (DMEM (without phenol red), Glutamax™, 10% FBS, and 10 mM Hepes, pH 7.4). Further, 50 μl/well of standard or sample in assay buffer were added. After 3 hours incubation at 37° C. and 5% CO2, the assay medium with standard or sample were removed and replaced by 100 μl/well PBS. Further, 100 μl/well LucLite™ was added. The plates were sealed and incubated at room temperature for 30 minutes. Finally, luminescence was measured on a TopCounter (Packard) in SPC (single photon counting) mode.

For data set [2], the target named is T2, human amylin 3(a) receptor (human calcitonin receptor + RAMP-3) in BHK570 cells (Homo sapiens, UniProt O60896+P30988).
T2 construct: expressed in transfected cells
Description: ASSAY (II)a functional assay, human amylin receptor (CRE luciferase). In kind it is cell-based. In short, it runs like this: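 Readout is luminescence from a cAMP-responsive CRE-luc reporter, developed with LucLite for 30 min at room temperature. Cells were treated for 3 h at 37 °C in 10% FBS/DMEM buffered with 10 mM Hepes (pH 7.4).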

Data set [3] can be described thus: ASSAY (III) ThT fibrillation assay for physical stability. Type of data set: physicochemical. An excerpt: Assay (III)—ThT Fibrillation Assays for the Assessment of Physical Stability of Protein Formulations Low physical stability of a polypeptide may lead to amyloid fibril formation, which is observed as well-ordered, thread-like macromolecular structures in the sample eventually resulting in gel formation. This has traditionally been measured by visual inspection of the sample. However, that kind of measurement is very subjective and depending on the observer. Therefore, the application of a small molecule indicator probe is much more advantageous. Thioflavin T (ThT) is such a probe and has a distinct fluorescence signature when binding to fibrils [Naiki et al. (1989) Anal. […] LeVine (1999) Methods. Enzymol. […], 274-284]. The time course for fibril formation can be described by a sigmoidal curve with the following expression [Nielsen et al. (2001) Biochemistry 40, 6036-6046]; […] Here, F is the ThT fluorescence at the time t. The constant t0 is the time needed to reach 50% of maximum fluorescence. […] Few of those intermediates nucleate to form a template onto which further intermediates may assembly and the fibrillation proceeds. The lag-time corresponds to the interval in which the critical mass of nucleus is built up and the apparent rate constant is the rate with which the fibril itself is formed. Sample Preparation Samples were prepared freshly before each assay. Each sample composition is described in each example. The pH of the sample was adjusted to the desired value using appropriate amounts of concentrated NaOH and HClO4 or HCl. Thioflavin T was added to the samples from a stock solution in H2O to a final concentration of 1 μM. Sample aliquots of 200 μl were placed in a 96 well microtiter plate (Packard OptiPlate™96, white polystyrene). Usually, four or eight replica of each sample (corresponding to one test condition) were placed in one column of wells. The plate was sealed with Scotch Pad (Qiagen). Incubation and Fluorescence Measurement Incubation at given temperature, shaking and measurement of the ThT fluorescence emission were done in a Fluoroskan Ascent FL fluorescence platereader or Varioskan platereader (Thermo Labsystems). The temperature was adjusted to 37° C. The orbital shaking was adjusted to 960 rpm with an amplitude of 1 mm in all the presented data. Fluorescence measurement was done using excitation through a 444 nm filter and measurement of emission through a 485 nm filter. Each run was initiated by incubating the plate at the assay temperature for 10 min. The plate was measured every 20 minutes for a desired period of time. Between each measurement, the plate was shaken and heated as described. Data Handling The measurement points were saved in Microsoft Excel format for further processing and curve drawing and fitting was performed using GraphPad Prism. The background emission from ThT in the absence of fibrils was negligible. The data points are typically a mean of four or eight samples and shown with standard deviation error bars. Only data obtained in the same experiment (i.e. samples on the same plate) are presented in the same graph ensuring a relative measure of fibrillation between experiments. The data set may be fitted to Eq. […] However, since full sigmodial curves in this case are not always achieved during the measurement time, the degree of fibrillation is expressed as ThT fluorescence tabulated as the mean of the samples and shown with the standard deviation at various time points. Measurement of Initial and Final Concentrations The polypeptide concentration in each of the tested formulations were measured both before application in the ThT fibrillation assay (“Initial”) and after completion of the ThT fibrillation (“After ThT assay”). Concentrations were determined by reverse HPLC methods using a pramlintide standard as a reference. Before measurement after completion 150 μl was collected from each of the replica and transferred to an Eppendorf tube. These were centrifuged at 30000 G for 40 mins. […]

The target of data set [4] is T3, human calcitonin receptor (Homo sapiens, UniProt P30988).
T3 construct: expressed in transfected cells
T3 sequence (P30988 25-474): T1 sequence (P30988 25-474)
The experiment in a line: ASSAY (VII) binding to the human calcitonin receptor (SPA, 125I-Calcitonin).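 Note: cell membranes (35 ng/µL) combined with SPA beads in 40 µL of pH 7.4 Hepes buffer, 384-well format, signal counted on a TopCounter instrument.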 The note with it: read-out: hCTR bind IC50.

Data set [5] has as its target T4, human amylin receptor (membranes from Amylin 3(a)/CRE-luc cells) (Homo sapiens, UniProt O60896+P30988).
T4 construct: expressed in transfected cells
T4 sequence (P30988 25-474): T1 sequence (P30988 25-474)
T4 sequence (O60896 24-148 partner): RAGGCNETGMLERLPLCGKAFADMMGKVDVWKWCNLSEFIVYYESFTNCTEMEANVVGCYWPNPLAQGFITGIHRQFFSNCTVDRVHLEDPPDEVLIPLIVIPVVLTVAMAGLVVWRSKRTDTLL
The experiment in a line: ASSAY (V) binding to the human amylin receptor (SPA, 125I-rat amylin).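 Note: competition binding of cell membranes (35 ng/µL) mixed with SPA beads in 384-well plates at 40 µL total volume, read by scintillation counting.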

Consider `CC[C@H](C)[C@H](NC(=O)[C@H](C)NC(=O)CNC(=O)[C@H](Cc1ccccc1)NC(=O)[C@H](CC(N)=O)NC(=O)[C@@H]1CCCN1C(=O)[C@H](CO)NC(=O)[C@H](CO)NC(=O)[C@H](Cc1c[nH]cn1)NC(=O)[C@H](CCCNC(=N)N)NC(=O)[C@H](CC(C)C)NC(=O)[C@H](Cc1ccccc1)NC(=O)[C@H](CCC(=O)O)NC(=O)[C@H](C)NC(=O)[C@H](CC(C)C)NC(=O)[C@H](CCCNC(=N)N)NC(=O)[C@H](CCC(N)=O)NC(=O)[C@@H](NC(=O)[C@H](C)NC(=O)[C@@H]1CSSC[C@H](NC(=O)[C@@H](N)CCCCNC(=O)CC[C@H](NC(=O)CC[C@H](NC(=O)CCCCCCCCCCCCCCCCCCC(=O)O)C(=O)O)C(=O)O)C(=O)N[C@@H](CC(N)=O)C(=O)N[C@@H]([C@@H](C)O)C(=O)N[C@@H](C)C(=O)N[C@@H]([C@@H](C)O)C(=O)N1)[C@@H](C)O)C(=O)N1CCC[C@H]1C(=O)N[C@@H](CO)C(=O)N[C@@H](CO)C(=O)N[C@H](C(=O)N[C@@H](CC(N)=O)C(=O)N[C@H](C(=O)NCC(=O)N[C@@H](CO)C(=O)N[C@@H](CC(N)=O)C(=O)N[C@H](C(=O)N1CCC[C@H]1C(N)=O)[C@@H](C)O)C(C)C)[C@@H](C)O` [Example 13] (H-K([γGlu-γGlu-C20 diacid])CNTATCATQRLAEFLRHSSPNFGAIPSSTNVGSNTP-NH2; disulfide 2-7; N-terminus assumed), for which the EC50 in data set [1] was 0.47 nM; in data set [2] (human amylin receptor functional potency, assay (II), read-out: hAmylin-R funct. EC50), 0.213 nM. Also, the “Ratio hCT/hAmylin funct.” value in data set [2] (hCTR funct. EC50 / hAmylin-R funct. EC50), in data set [2] (hCTR funct. EC50 divided by hAmylin-R funct. EC50), in data set [2] (hCTR funct. EC50 over hAmylin-R funct. EC50) and in data set [2] (human functional selectivity: hCTR funct. EC50 / hAmylin-R funct. EC50) was 2.2 in each case. In addition, in data set [3], the “ThT pH 4.0 lag time (h)” value was 45 h. Also, the IC50 came out at 0.305 nM in data set [4] and 0.264 nM in data set [5] (Table 4, read-out: hAmylin-R bind IC50). The “Ratio hCT/hAmylin binding” value in data set [5] (Table 5, selectivity, hCTR bind IC50 / hAmylin-R bind IC50) turned out to be 1.2; in data set [5] (Table 7, human binding selectivity, included for comparison), 1.2.

The EC50 is the concentration needed to bring the measured effect to its halfway point. As a reminder, the IC50 is the concentration needed to halve the response being measured.
